Patent publication US10226466B2, “Methods of treating fibrosis” (Pharmacyclics LLC, priority 2014, dated 2019)
Values joined by “and” are separate entries in the source; they are usually repeats but may differ in a detail not shown here. Identical values can stand only once. “Also recorded” adds a separate entry of the source.

Columns and labels:
mast cell = conditions: mouse model of insulinoma; background statement; cited from earlier work
[1] = system: subcutaneous xenografts of a patient derived tumor in NOD/SCID mice; experiment: Collagen deposition in subcutaneous xenografts of a patient-derived tumor (PDX) in NOD/SCID mice; assay type: in vivo, mouse; conditions: NOD/SCID mice with patient-derived xenograft, ibrutinib-treated vs untreated
Experimental: (§1) For immunohistochemical analyses, tissue samples were fixed overnight in neutral pH-buffered formalin, embedded in paraffin and sectioned (5 μm). Sections were then deparaffinized, rehydrated and microwaved for 1 min in 0.01 M citrate buffer (pH 6.0) for antigen retrieval. Primary antibodies (rat monoclonal anti-CD11b (clone M1/70), eBioscience; rabbit monoclonal anti-Ki67 (clone SP6), Neomarkers) were applied for 2 h in blocking buffer (2.5% BSA, 5% goat serum and 0.3% Triton X-100 in PBS), followed by Vectastain ABC kit and DAB reagents (Vector Laboratories). Images were obtained with an Axiovert S100 TV inverted fluorescence microscope (Zeiss) and Open Lab 3.5.1 software, or with an Axiovert 100 inverted microscope (Zeiss) equipped with a Hamamatsu Orca digital camera. The mast cells were identified using 1% toluidine blue dissolved in ethanol. Picrosirius Red stain kit (Polysciences, Inc.) was used to stain for collagen Types I and III according to manufacturer instructions.
NOD/SCID mice were purchased from Charles River Laboratory. The anonymized human sample employed was part of the tissue biological material of the University Hospital Vall d'Hebron. […] Tumor size was evaluated weekly by caliper measurements and tumor volume calculated using the following formula: […]

[2] = system: p53^ER/ER;LSLKRas^G12D;pdx1-Cre mice; experiment: Flow cytometry of single cell suspensions of PDAC tumors from treated mice; assay type: in vivo, mouse; conditions: ibrutinib 25 mg/Kg/day in drinking water, 4 weeks
Experimental: Following resection, PDAC tumors isolated from PBS-perfused mice were immediately placed in ice-cold PBS, followed by manual mincing using scissors and a 20 min enzymatic digestion with 1.25 mg/mL collagenase type IV (Roche), 0.1% trypsin inhibitor, and 50 U/ml DNase I (Roche) in serum-free Dulbecco's Modified Eagle's Medium (DMEM) (Invitrogen) at 37° C. with continuous stirring. Single cell suspensions were then prepared by passing tissue through 70 μm nylon strainers (BD Biosciences). Cells were incubated for 30 min at 4° C. with rat anti-mouse CD16/CD32 mAb (1:250, clone 2.4G2, BD Bioscience) in PBS, which also contained Live/Dead Aqua stain (1:250, Invitrogen) to differentiate between viable and dead cells. Cells were then incubated for 30 min in PBS containing 1.0% BSA (Sigma) and 2 mM EDTA with 100 μl of fluorophore-conjugated anti-mouse antibodies (dilution; clone): PE-Cy7-CD45 (1:800; 30-F11), PerCp-Cy5.5-CD3e (1:400; 145-2C11), PerCp-Cy5.5-CD19 (1:200; 6D5), PerCp-Cy5.5-CD49b (1:400; DX5), Alexa 700-CD11b (1:400; M1/70), APC780-CD11c (1:200; N418), eFluor450-MHCII (1:800; M5/114.15.2), APC-Ly6C (1:800; HK1.4), PE-Ly6G (1:400; 1A8), and PE-Cy5-F4/80 (1:400; BM8) (eBioscience or Biolegend). Cells were then washed once in PBS containing 1.0% BSA (Sigma) and 2 mM EDTA, followed by fixation with BD Cytofix for 30 min on ice. […]

[3] = system: p53^ER/ER;LSLKRas^G12D;pdx1-Cre mice; experiment: Survival study in PDAC model mice (Kaplan-Meier, Log-rank test); assay type: in vivo, mouse; conditions: treatment starting from 8 weeks of age; Log-rank p value=0.015
Experimental: For all experiments, 8 week old male and female p53^ER/ER;LSLKRas^G12D;pdx1-Cre mice of mixed C57BL/6-FVB/N background were randomized into two groups: treated and control. Ibrutinib (0.16 mg/mL with 1% 2-Hydroxypropyl-beta-cyclodextrin (HP-β-CD)) was added to the drinking water of treated animals, and control animals received water containing vehicle only (1% HP-β-CD). Gemcitabine (75 mg/kg) was injected intraperitoneally twice a week for 3 weeks followed by a 1-week rest period. Sodium cromoglycate (10/kg) was dissolved in saline solution and injected intraperitoneally, and control mice were treated with vehicle only. Endpoint criteria were defined as 20% body weight loss in addition to general morbidity and lethargy caused by tumor burden. Mice euthanized due to intestinal metaplasia or mucocutaneous papillomas caused by extrapancreatic KRAS^G12D expression were excluded from the survival study.
Statistical analysis was carried out by two-tailed Mann-Whitney test (for IHC counts), two tailed unpaired t-test (for flow cytometry data) and Log-Rank test (for Kaplan-Meier survival curves). […] Statistical analysis was performed using GraphPad Prism 4.
Two independent survival experiments were undertaken to test the therapeutic impact of ibrutinib alone and to assess ibrutinib in combination with gemcitabine.

[4] = system: p53^ER/ER;LSLKRas^G12D;pdx1-Cre mice; experiment: Histology, immunohistochemistry and Picrosirius Red collagen staining of pancreata from PDAC model mice treated for 4 weeks; assay type: in vivo, mouse; conditions: for Collagen deposition (Picrosirius Red Staining): intraperitoneal daily injection of 10 mg per kg for 4 weeks from 8 weeks of age, compared to vehicle-treated control
Experimental: as §1
For all experiments, 8 week old male and female p53^ER/ER;LSLKRas^G12D;pdx1-Cre mice of mixed C57BL/6-FVB/N background were randomized into two groups: treated and control. Ibrutinib (0.16 mg/mL with 1% 2-Hydroxypropyl-beta-cyclodextrin (HP-β-CD)) was added to the drinking water of treated animals, and control animals received water containing vehicle only (1% HP-β-CD). Gemcitabine (75 mg/kg) was injected intraperitoneally twice a week for 3 weeks followed by a 1-week rest period. Sodium cromoglycate ([…]) was dissolved in saline solution and injected intraperitoneally, and control mice were treated with vehicle only. Endpoint criteria were defined as 20% body weight loss in addition to general morbidity and lethargy caused by tumor burden. Mice euthanized due to intestinal metaplasia or mucocutaneous papillomas caused by extrapancreatic KRAS^G12D expression were excluded from the survival study.
A p53^ER/ER;LSLKRas^G12D;pdx1-Cre mouse model that harbors a Cre-activated KRasG12D allele inserted into the endogenous KRas locus combined with pancreas-specific PDX-1-driven Cre recombinase activity was used. The disruption of Trp53 signaling in combination with KRas mutation leads to rapid tumorigenesis and histopathological features typical of human pancreatic adenocarcinoma within only 8 weeks. At this stage the animals were treated with ibrutinib, at a dose of 25 mg/Kg/day added to their drinking water, or with vehicle control. The animals were euthanized 4 weeks later and their pancreata harvested for analysis. […] In stained, vehicle-treated mast cells, the cell borders were broken and the content of their granules were released. […] Reasons for this phenomenon can include the fact that several chemokines produced by mast cells, such as IL6, are known to be potent stimulants for monocytic cell migration and macrophage activation, so that inhibiting mast cells could prevent their recruitment.
In order to verify that this effect on fibrosis was specifically due to mast cell interference, two independent control experiments were performed. In the first experiment, sodium cromoglycate (cromolyn), a well-characterized blocker of mast cell degranulation and inflammogen release was used. The p53^ER/ER;LSLKRas^G12D ,pdx1-Cre mice were treated intraperitoneally (i.p.) with a daily injection of 10 mg per kg (bodyweight) of cromolyn, starting at 8 weeks of age. The animals were euthanized 4 weeks later and their pancreata analysed.

| SMILES | Systemic mast cell blocking (mast cell) | Collagen deposition / tissue fibrosis in tumor stroma (Picrosirius Red Staining) [1] | F4/80 positive macrophages (tumor-associated macrophages) by FACS analysis ([2]; FIG. 1C right panel) | CD11b+ cells by FACS analysis ([2]; percent of total cells, FIG. 1C left panel) | Survival, monotherapy vs vehicle control [3] | Ki67 positive (proliferating) cells in pancreata / proliferation rate ([4]; ibrutinib 25 mg/Kg/day in drinking water for 4 weeks from 8 weeks of age, IHC, vehicle control 67.8%, p value=0.0016) | Mast cell degranulation in tumor stroma (toluidine blue staining) ([4]; ibrutinib 25 mg/Kg/day in drinking water, 4 weeks) | Amount of collagen in tumors (Picrosirius Red Staining) ([4]; ibrutinib 25 mg/Kg/day in drinking water, 4 weeks, compared to vehicle-treated animals) | CD11b positivity by immunohistochemistry ([4]; ibrutinib 25 mg/Kg/day in drinking water, 4 weeks, compared to vehicle-treated mice) | Collagen deposition (Picrosirius Red Staining) [4] | Collagen deposition (Picrosirius Red Staining) ([4]; listed as sodium cromoglicate) |
| --- | --- | --- | --- | --- | --- | --- | --- | --- | --- | --- | --- |
| C=CC(=O)N1CCC[C@@H](n2nc(-c3ccc(Oc4ccccc4)cc3)c3c(N)ncnc32)C1 [ibrutinib, (R)-1-(3-(4-amino-3-(4-phenoxyphenyl)-1H-pyrazolo[3,4-d]pyrimidin-1-yl)piperidin-1-yl)prop-2-en-1-one] | potent systemic mast cell blocker | reduction in tissue fibrosis; also recorded: reduction of collagen deposition | significant reduction | confirmed by FACS analysis | significant survival advantage; also recorded: confers survival advantage | 14.9±7.0% and 14.9% | efficiently inhibited | reduced the amount of collagen | affected; also recorded: clear reduction of CD11b positivity |  |  |
| O=C(O)c1cc(=O)c2c(OCC(O)COc3cccc4oc(C(=O)O)cc(=O)c34)cccc2o1 [cromolyn, sodium cromoglycate, reference compound] |  |  |  |  |  |  |  |  |  | reduced collagen deposition | recapitulated the antifibrotic effect |
